Results on 31 compounds are retold here after patent publication US7695728B2, “2-substituted pyridines, processes for their preparation and their use for controlling harmful fungi” (BASF Aktiengesellschaft, priority 2004, dated 2010).

The melting point is the temperature of the solid-liquid transition.

On to `Fc1cccc(Cl)c1-c1c(NC2CCC(c3ccccc3)CC2)cc(-n2cccn2)nc1Cl` (stereo not shown) [I-4], for which the melting point amounted to 170 °C.
For `Fc1cccc(Cl)c1-c1c(Cl)cc(-n2cccn2)nc1NC1CCC(c2ccccc2)CC1` (stereo not shown) [I-5] the value was 78 °C.
For `CC(C)(C)C1CCC(Nc2nc(-n3cccn3)cc(Cl)c2-c2c(F)cccc2Cl)CC1` (stereo not shown) [I-9] the value was 126 °C; for `CC(C)Nc1cc(-n2cncn2)nc(Cl)c1-c1c(F)cccc1Cl` [I-13, 2-Chloro-3-(2-chloro-6-fluorophenyl)-4-(2-propylamino)-6-([1,2,4]triazol-1-yl)pyridine], 152 °C; for `CC(C)Nc1nc(-n2cncn2)cc(Cl)c1-c1c(F)cccc1Cl` [I-14, 4-chloro-3-(2-chloro-6-fluorophenyl)-2-(2-propylamino)-6-([1,2,4]triazol-1-yl)pyridine], 152 °C.
Under `CCC(C)Nc1cc(-n2cccn2)nc(Cl)c1-c1c(F)cccc1Cl` (stereo not shown) [I-15] stands 108 °C; under `CCC(C)Nc1nc(-n2cccn2)cc(Cl)c1-c1c(F)cccc1Cl` (stereo not shown) [I-16], 114 °C; under `CC1CCN(c2nc(-n3cccn3)cc(Cl)c2-c2c(F)cccc2Cl)CC1` [I-19], 120 °C.
`Fc1cccc(Cl)c1-c1c(Cl)cc(-n2cccn2)nc1N1CCCC1` [I-20] registered a melting point of 158 °C.
With `Fc1cccc(Cl)c1-c1c(N2CCCC2)cc(-n2cccn2)nc1Cl` [I-21], the melting point was found to be 161 °C.
For the compound `Fc1cccc(Cl)c1-c1c(NC2CC2)cc(-n2cccn2)nc1Cl` [I-22], the melting point was 164 °C.
Under `Fc1cccc(Cl)c1-c1c(Cl)cc(-n2cccn2)nc1NC1CC1` [I-23] stands 103 °C.
For `Fc1cccc(Cl)c1-c1c(Cl)cc(-c2ccccn2)nc1NC1CCC(c2ccccc2)CC1` (stereo not shown) [I-24] the value was 162 °C; for `Fc1cccc(Cl)c1-c1c(NC2CCC(c3ccccc3)CC2)cc(-c2ccccn2)nc1Cl` (stereo not shown) [I-25], 181 °C; for `CC(C)(C)C1CCC(Nc2cc(-c3ccccn3)nc(Cl)c2-c2c(F)cccc2Cl)CC1` (stereo not shown) [I-27], 163 °C.
Compound `CC1CCN(c2cc(-c3ccccn3)nc(Cl)c2-c2c(F)cccc2Cl)CC1` [I-31] had a melting point of 119 °C.
Regarding `Fc1cccc(Cl)c1-c1c(NC2CCCCC2)cc(-c2ccccn2)nc1Cl` [I-36], the melting point turned out to be 83 °C.
Under `CC(C)Nc1nc(-c2ccccn2)cc(Cl)c1-c1c(F)cccc1Cl` [I-39] stands 67 °C; under `Fc1cccc(Cl)c1-c1c(Cl)cc(-c2ccccn2)nc1N1CCCC1` [I-40], 155 °C; under `Fc1cccc(Cl)c1-c1c(Cl)cc(-n2cccn2)nc1NC1CCCCC1` [I-43], 152 °C.
As for `Fc1cccc(Cl)c1-c1c(NC2CCCCC2)cc(-n2cccn2)nc1Cl` [I-44], the melting point was 112 °C.
For `Cc1cccc(-c2cc(Cl)c(-c3c(F)cccc3Cl)c(NC(C)C)n2)n1` [I-45] the value was 131 °C; for `CC(C)Nc1cc(-c2nccs2)nc(Cl)c1-c1c(F)cccc1Cl` [I-48], 78 °C.
Under `Cc1nc(-c2cc(NC(C)C)c(-c3c(F)cccc3Cl)c(Cl)n2)sc1C` [I-50] stands 183 °C.
Under `CC(C)Nc1nc(-c2nc3ccccc3s2)cc(Cl)c1-c1c(F)cccc1Cl` [I-51] stands 119 °C; under `CC(C)Nc1cc(-c2nc3ccccc3s2)nc(Cl)c1-c1c(F)cccc1Cl` [I-52], 154 °C.
For the compound `CC1CCN(c2nc(-c3ncccn3)cc(Cl)c2-c2c(F)cccc2Cl)CC1` [I-53], the melting point came to 129 °C.
For `CC1CCN(c2cc(-c3ncccn3)nc(Cl)c2-c2c(F)cccc2Cl)CC1` [I-54] the value was 129 °C; for `COc1ccc(CCNc2cc(-c3ccccn3)nc(Cl)c2-c2c(F)cccc2Cl)cc1OC` [I-56], 78 °C.
For `COc1ccc(CCNc2nc(-n3cccn3)cc(Cl)c2-c2c(F)cccc2Cl)cc1OC` [I-57] the value was 59 °C; for `COc1ccc(CCNc2cc(-n3cccn3)nc(Cl)c2-c2c(F)cccc2Cl)cc1OC` [I-58], 201 °C.
